We go through one molecule from patent US11130733B2, “4-OXO-alkylated tetramic acid compound, preparation method and use thereof” (BEIJING JOEKAI BIOTECH. LLC, priority 2017, dated 2021).

The test system of data set [1] is CR mice. As to the kind of experiment: MTD experiment, dose gradient by gavage. As to conditions: for Survival number: 10 mice per dose. The class given is in vivo. On the procedure: Mice are commonly used rodents to evaluate the toxicity of a test sample and are also an important part of early preclinical safety evaluation. In this experiment, the toxicity of compound 50561 was tested by administering a dose gradient thereof to the mice by gavage and observing its toxicity.
This experiment was designed such that for each dose centration, 10 mice were tested, including half males and half females. The males each weighed about 18-23 grams, and the females each weighed about 17-21 grams. They were randomly grouped by a simple randomization procedure. All the animals used in the experiment weighed between ±20% of the average body weight of their respective genders. If there are not enough animals in the study to meet the weight range required thereby, notify the responsible person of the project to take reasonable measures. Animals must be adapted to the laboratory for at least three days. During this period, daily cage observation was conducted once a day, and a detailed clinical observation was necessary before the experiment. Any animal with symptoms or physical abnormalities would be reported to the attending veterinarian and responsible person of the project, and excluded whenever possible. Animals suitable for experimentation will be assigned to respective experimental groups according to the random grouping method described above.
During the experiment, after administration, all animals were observed continuously for 4 hours; from the end of administration till 3 days thereafter, observations were carried out twice each day, one in the morning and the other in the afternoon; and then observation was carried out once a day. Observations included but were not limited to: skin, hair, eyes, ears, nose, mouth, chest, abdomen, external genitals, limbs, and feet. The respiratory and circulatory systems, autonomic effects (such as salivation), and nervous system (such as tremors, convulsions, stress responses, and abnormal behaviors) should be focused on. Complete anatomical examinations would be performed on all animals that had died, were dying, or planned to be euthanized. Animals found dead outside of fixed working hours could be placed in the refrigerator overnight and dissected immediately on the next working day. At the end of the experiment (14th day after administration), all animals requiring autopsy would be euthanized and autopsied.
External abnormalities in animals, such as palpable masses, should be examined in detail. The skin would be cut along the midline of the abdomen, and any subcutaneous mass would be confirmed in conjunction with the findings in the observations of animal symptoms. […] Diseased organs were removed, weighed, recoded, and kept in a fixative fluid.

Data set [2] has as its target hERG potassium channel (Homo sapiens, UniProt Q12809). As to the kind of experiment: hERG current, whole-cell patch clamp on HEK-hERG stable cell line. The class given is cell-based. The text has this: Rapidly activated human delayed rectifier outward potassium current (IKr) is mainly mediated by hERG ion channels, and participates in human cardiomyocyte repolarization. Pharmaceutical blockade of this current is the main cause of prolonged QT syndrome, even acute arrhythmia and sudden death clinically.
In this experiment, a stable cell line HEK-hERG (from the Academy of Military Medical Sciences) was selected, and the whole-cell patch clamp technique was used to record the hERG current. Cell suspension was collected and added to a 35 mm culture dish, which was placed on an inverted microscope carrier. After cell attachment, perfusion was performed with an extracellular fluid at a flow rate of 1-2 mL/min. A glass microelectrode was drawn in two steps by a micropipette puller, and after filling with electrode inner fluid, the water resistance of the glass microelectrode was 2-5 MΩ. After the whole cell recording mode was established, the clamping potential was maintained to −80 mV. A depolarization voltage was exerted to +60 mV for 850 ms, followed by repolarization to −50 mV for 1275 ms to induce an hERG tail current. After current stabilization, continuous extracellular perfusion administration from a low concentration to a high concentration was adopted. Starting from the low concentration, continuous perfusion was performed until the efficacy was stable, followed by perfusion of the next concentration. When the inhibitory rate of a compound or positive control to the hERG current was less than 50%, the CV of each of five consecutive current values was less than 10%. When the inhibitory rate of a compound or positive control to the hERG current was more than 50% but less than 70%, the CV of each of five consecutive current values was less than 20%. If a current amplitude was reduced by less than 200 pA, or if the inhibitory rate was more than 70%, the CV of each of five consecutive current values was less than 30%.
A certain amount of a test sample was weighed and dissolved into DMSO to prepare a 30 mM stock solution. Prior to the experiment, the above stock solution was diluted by DMSO 10 times and 3 times step by step, and then the solution was diluted by extracellular fluid to a required concentration. The solution at working concentration should be checked for precipitation before use. If precipitation existed, the stock solution would be diluted to increase the final concentration of DMSO in the extracellular fluid. However, the final concentration of DMSO in the extracellular fluid would not exceed 0.5%. Continuous perfusion from low to high concentrations was done during the experiment. The half inhibitory concentration (IC50) of the test sample was obtained by the best fitting of Logistic equation.
When data were processed, stimulus release and signal acquisition were carried out by the software patchmaster; and a patch clamp amplifier amplified the signal and filtered it to 10 KHz. Fitmaster, excel, spass 21.0, and the like were used for further data analysis and curve fitting. The data were shown as mean values±standard deviation. In data processing, when the blocking effect on hERG was determined, the peak value of a tail current and its baseline were corrected. The inhibitory rates of the tail current were used to show the effects of various compounds at different concentrations. The inhibitory rate=100×(the peak value of the tail current before administration−the peak value of the tail current after administration)/the peak value of the tail current before administration %. IC50 values were fitted by the Hill equation:
[formula] wherein, y: I/Icontrol; max: 100%; min: 0%; [drug]: concentration of the test sample; nH: Hill slope; IC50: maximum half inhibition concentration of the test substance.
To induce a peak current of hERG tail current, the clamping potential was maintained at −80 mV, depolarized to 60 mV for 0.85 s, and then repolarized to −50 mV for 1.275 s. […]

Data set [3] concerns Drosophilae containing and expressing human Abeta42 gene. Kind of data set: Pavlov's olfactory-related instantaneous memory test in Drosophila. The class given is in vivo. The conditions noted are these: FIG. 3; with increase of dosage; compared with positive compound memantine hydrochloride.
Setting [4] is: human, Inhibitory effect, Mean value ± standard deviation.
The mark [5] stands for this setting: human, Inhibitory effect, individual cells 1-4.

Chain of hERG potassium channel (Q12809 whole entry, the tested form may be a part): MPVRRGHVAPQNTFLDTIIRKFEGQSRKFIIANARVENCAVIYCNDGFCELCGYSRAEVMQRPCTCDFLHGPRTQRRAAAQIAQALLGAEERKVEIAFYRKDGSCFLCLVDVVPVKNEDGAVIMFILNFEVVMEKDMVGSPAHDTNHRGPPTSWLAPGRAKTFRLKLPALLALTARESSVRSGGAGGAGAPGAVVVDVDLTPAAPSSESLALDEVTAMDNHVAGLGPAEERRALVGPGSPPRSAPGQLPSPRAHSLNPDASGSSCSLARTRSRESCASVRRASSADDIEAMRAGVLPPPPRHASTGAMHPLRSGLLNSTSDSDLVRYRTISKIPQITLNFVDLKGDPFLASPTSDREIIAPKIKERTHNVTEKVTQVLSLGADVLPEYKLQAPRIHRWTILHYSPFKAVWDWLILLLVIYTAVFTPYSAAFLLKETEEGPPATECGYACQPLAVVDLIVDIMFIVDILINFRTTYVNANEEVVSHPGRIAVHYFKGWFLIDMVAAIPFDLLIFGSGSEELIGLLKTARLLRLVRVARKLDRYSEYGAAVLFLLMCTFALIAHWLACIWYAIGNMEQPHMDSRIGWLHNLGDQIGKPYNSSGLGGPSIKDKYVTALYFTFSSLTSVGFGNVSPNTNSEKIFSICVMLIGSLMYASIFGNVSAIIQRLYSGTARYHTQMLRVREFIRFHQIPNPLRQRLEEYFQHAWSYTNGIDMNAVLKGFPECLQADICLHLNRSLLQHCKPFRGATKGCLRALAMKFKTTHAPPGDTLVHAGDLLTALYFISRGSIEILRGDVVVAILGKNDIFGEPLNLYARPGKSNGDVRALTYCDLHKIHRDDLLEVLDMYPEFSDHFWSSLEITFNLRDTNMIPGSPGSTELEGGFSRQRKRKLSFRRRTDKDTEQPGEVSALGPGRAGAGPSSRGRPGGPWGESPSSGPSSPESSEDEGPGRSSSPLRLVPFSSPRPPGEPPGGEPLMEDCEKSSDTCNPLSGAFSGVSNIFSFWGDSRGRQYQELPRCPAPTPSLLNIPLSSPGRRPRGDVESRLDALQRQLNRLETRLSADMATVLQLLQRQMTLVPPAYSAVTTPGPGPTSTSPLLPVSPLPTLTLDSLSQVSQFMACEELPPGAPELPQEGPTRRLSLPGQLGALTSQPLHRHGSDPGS

For `O=C1C=C(OCc2ccc(F)cc2)[C@H](Cc2ccccc2)N1` [Compound 50561], the “Remarks: condition of the body” value in data set [1] (250 mg/kg) is “in good condition”. The Survival number in data set [1] (250 mg/kg by gavage) came out at 10; in data set [1] (500 mg/kg by gavage), 8; in data set [1] (750 mg/kg by gavage), 0; in data set [1] (1000 mg/kg by gavage), 0. In addition, the “Remarks: Body weight decreased by” value is given as “about 2 g, which was quickly” in data set [1] (250 mg/kg, quickly recovered) and “about 2 g; individual activity” in data set [1] (500 mg/kg). The “Remarks: condition of the body; organs of the dead individuals” value in data set [1] (500 mg/kg) is “in good condition. There”. Besides, the “Remarks: organs in dead individuals” value in data set [1] (750 mg/kg) and in data set [1] (1000 mg/kg) was “No abnormality of organs” in each case. Moreover, in data set [1] (CR mice, by gavage), the “maximum tolerance (MTD)” value is < 500 mg/kg. Besides, the Hill coefficient in data set [2] (Hill equation fit, N=4) worked out at 1.01. The midpoint of inhibition in data set [2] (human), the IC50, lay at 26.7 µM. In data set [2] (setting [4]), this molecule showed an inhibition at 300 nM of 0.84 ± 3.93%. Further, testing at 1 µM in data set [2] (setting [4]) gave an inhibition of 3.43 ± 4.42%. In addition, in data set [2] (setting [4]), 3 µM produced 11.3 ± 4.09% inhibition. The inhibition at 10 µM in data set [2] (setting [4]) is 25.7 ± 1.31%; in data set [2] (setting [5]) it was 24.1%. Also, the inhibition at 30 µM in data set [2] (setting [4]) turned out to be 53.6 ± 3.6%; in data set [2] (setting [5]) it was 59.6%. Further, the “dose-effect relationship to improve memory of drosophilae” value in data set [3] is given as “eventually reaches or exceeds the level of the activity of the positive compound memantine hydrochloride”.
